Data: paper PMC11514586, “Development of Novel ROCK Inhibitors via 3D-QSAR and Molecular Docking Studies: A Framework for Multi-Target Drug Design” (Pharmaceutics, 2024)

Columns and labels:
Type in all cases: biochemical
ROCK1 = ROCK1 (Homo sapiens, UniProt Q13464); assay: radiometric […]-ATP P81 filter binding kinase assay, 10-dose IC50 ([…] ATP)
ROCK2 [1] = biological target: T1, ROCK2 (Homo sapiens, UniProt O75116); assay: as above
ROCK2 [2] = biological target: T1, ROCK2; assay: radiometric […]-ATP kinase assay, single concentration […], percent inhibition

T1 sequence (O75116 whole entry): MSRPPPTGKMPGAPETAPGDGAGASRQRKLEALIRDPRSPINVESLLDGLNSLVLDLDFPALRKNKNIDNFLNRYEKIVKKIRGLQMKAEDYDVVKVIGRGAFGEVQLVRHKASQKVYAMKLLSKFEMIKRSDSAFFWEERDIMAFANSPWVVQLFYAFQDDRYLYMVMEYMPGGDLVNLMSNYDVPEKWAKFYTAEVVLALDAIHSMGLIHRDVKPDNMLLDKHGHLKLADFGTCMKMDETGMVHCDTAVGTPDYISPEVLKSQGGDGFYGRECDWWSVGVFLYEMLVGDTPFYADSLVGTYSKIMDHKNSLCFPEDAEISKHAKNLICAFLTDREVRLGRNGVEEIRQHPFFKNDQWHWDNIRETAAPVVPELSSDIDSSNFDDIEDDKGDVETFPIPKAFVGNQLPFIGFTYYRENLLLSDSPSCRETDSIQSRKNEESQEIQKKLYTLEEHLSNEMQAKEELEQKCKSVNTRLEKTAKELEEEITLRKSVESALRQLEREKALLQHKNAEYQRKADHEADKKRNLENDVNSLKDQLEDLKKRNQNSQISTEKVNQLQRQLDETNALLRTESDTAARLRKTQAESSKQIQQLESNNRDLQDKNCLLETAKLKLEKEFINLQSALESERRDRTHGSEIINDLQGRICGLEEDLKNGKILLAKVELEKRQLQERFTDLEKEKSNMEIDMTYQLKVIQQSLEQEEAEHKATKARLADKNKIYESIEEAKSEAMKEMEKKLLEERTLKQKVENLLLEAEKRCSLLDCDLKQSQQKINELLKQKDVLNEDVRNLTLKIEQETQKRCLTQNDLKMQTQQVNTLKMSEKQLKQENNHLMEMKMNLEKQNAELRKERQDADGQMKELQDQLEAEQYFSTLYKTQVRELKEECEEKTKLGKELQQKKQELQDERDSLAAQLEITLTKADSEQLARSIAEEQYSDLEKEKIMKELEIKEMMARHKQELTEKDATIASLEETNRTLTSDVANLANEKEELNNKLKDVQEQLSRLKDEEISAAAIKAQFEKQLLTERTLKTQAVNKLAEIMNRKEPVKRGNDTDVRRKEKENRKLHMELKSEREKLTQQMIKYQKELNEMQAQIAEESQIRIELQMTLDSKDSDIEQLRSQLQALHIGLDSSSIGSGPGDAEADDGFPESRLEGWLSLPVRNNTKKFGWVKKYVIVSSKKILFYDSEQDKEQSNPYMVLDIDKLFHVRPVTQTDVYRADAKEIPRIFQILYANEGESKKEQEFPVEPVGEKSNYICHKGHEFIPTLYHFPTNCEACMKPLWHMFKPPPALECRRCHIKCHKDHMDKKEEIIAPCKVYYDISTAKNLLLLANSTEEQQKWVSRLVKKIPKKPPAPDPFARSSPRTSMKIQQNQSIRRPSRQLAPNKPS
Chain of ROCK1 (Q13464 2-1354): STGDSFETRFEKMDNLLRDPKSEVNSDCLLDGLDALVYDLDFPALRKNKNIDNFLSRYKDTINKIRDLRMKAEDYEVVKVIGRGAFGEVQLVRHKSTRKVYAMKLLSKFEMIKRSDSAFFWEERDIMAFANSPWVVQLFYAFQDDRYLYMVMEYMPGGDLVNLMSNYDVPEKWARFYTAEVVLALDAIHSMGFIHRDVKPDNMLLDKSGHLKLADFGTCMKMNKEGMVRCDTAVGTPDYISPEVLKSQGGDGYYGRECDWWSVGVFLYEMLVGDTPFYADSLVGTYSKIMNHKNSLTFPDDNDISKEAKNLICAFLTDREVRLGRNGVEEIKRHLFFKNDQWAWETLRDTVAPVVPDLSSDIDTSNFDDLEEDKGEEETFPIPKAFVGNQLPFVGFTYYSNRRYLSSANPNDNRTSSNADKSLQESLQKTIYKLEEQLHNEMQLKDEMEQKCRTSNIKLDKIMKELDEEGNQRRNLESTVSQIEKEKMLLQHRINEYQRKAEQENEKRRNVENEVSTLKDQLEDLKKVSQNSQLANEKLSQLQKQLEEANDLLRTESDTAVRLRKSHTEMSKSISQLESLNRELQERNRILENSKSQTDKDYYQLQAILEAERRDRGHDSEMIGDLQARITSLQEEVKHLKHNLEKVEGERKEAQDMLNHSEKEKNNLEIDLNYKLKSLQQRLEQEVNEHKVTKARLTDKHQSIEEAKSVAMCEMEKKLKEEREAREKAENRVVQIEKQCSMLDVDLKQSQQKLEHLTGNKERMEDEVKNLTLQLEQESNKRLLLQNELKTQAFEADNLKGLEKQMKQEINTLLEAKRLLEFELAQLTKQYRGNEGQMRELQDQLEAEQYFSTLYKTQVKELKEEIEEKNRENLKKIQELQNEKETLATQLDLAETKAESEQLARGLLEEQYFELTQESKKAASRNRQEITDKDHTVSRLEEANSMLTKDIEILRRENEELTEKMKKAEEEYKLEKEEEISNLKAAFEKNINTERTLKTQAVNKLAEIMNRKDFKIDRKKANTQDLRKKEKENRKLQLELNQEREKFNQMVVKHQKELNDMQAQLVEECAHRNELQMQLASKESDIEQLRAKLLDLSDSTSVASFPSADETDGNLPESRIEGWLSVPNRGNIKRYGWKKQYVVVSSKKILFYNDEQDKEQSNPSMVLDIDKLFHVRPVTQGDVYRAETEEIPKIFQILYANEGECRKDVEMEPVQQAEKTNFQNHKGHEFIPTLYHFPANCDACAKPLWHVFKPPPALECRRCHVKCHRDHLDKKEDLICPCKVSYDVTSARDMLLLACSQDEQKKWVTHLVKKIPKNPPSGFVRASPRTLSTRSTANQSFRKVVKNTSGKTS

SMILES	IC50 (ROCK1) [µM]	IC50 (ROCK2 [1]) [µM]	inhibition at 10 µM (ROCK2 [2]) [%]
Cc1cc(F)ccc1CN1CCCN(S(=O)(=O)c2cccc3cnccc23)CC1 [C-19, 5-[4-(4-Fluoro-2-methyl-benzyl)-[1,4]diazepane-1sulfonyl]-isoquinoline]	4.22	6.13	
COc1cc(CN2CCCN(C(=O)/C=C/c3ccncc3)CC2)ccc1O [C-22, 1-[4-(4-Hydroxy-3-methoxy-benzyl)-[1,4]diazepan-1-yl]-3-pyridin-4-yl-propenone]			72.5
